The values that follow come from article PMC7938888, “Antidepressant drugs act by directly binding to TRKB neurotrophin receptors” (Cell, 2021).

Each structure is given as a SMILES string. Where “and” joins values, the source holds several entries; their conditions need not be identical. Equal values may be shown once. Entries after “also recorded” stand apart in the source; their conditions may differ. Read-outs that look alike come from different tables or passages of the source.

In series [1] the test system is mice. As to the kind of experiment: Object location memory (OLM) test. The class given is in vivo, mouse. The protocol: Object-location memory (OLM): this test was performed in a square arena (28cm side) with opaque walls containing cues (black stripes or spots). The adult male and female mice (18-22 weeks old) were placed for 3 consecutive days (15min per session) in the arena with two identical objects (table tennis balls glued to caps of 50ml Falcon tubes) in the same position throughout the sessions (pretest).

In series [2] the test system is surface TRKB. As to the kind of experiment: Surface TRKB ELISA in primary cortical neurons. The settings on record: primary cortical neurons. The class given is cell-based, rat. The protocol: The surface levels of TRKB were also determined by ELISA ([Zheng et al., 2008]). Briefly, the MG87.TRKB cells or primary cortical cells from rat or mouse embryos, cultivated in clear bottom 96-well plates (ViewPlate 96, Perkin Elmer), were washed with ice-cold PBS and fixed with 100μl of 4% PFA per well. After washing with PBS and blocking with PBS containing 5% nonfat dry milk and 5% BSA, the samples were incubated with primary anti-TRKB antibody (R&D Systems, #AF1494, 1:1000 in blocking buffer) or anti-GluR1 subunit of AMPA receptors (CST, #8850, 1:2000 in blocking buffer) ON at 4°C. Following washing, the samples were incubated with HRP-conjugated anti-goat or anti-rabbit IgG (1:5000 in blocking buffer) for 1h at RT. The cells were washed 4x with 200μl of PBS for 10 min each. Finally, the chemiluminescent signal generated by reaction with ECL was analyzed in a plate reader.
A general note: An ELISA detects its analyte on a solid surface through an enzyme-linked reagent.

The test system of series [3] is TRKB/TRKA.TM. As to the kind of experiment: Cell-free ligand binding assay, chimeric TRKB with TMD of TRKA. To be noted: biotinylated fluoxetine.
The conditions of series [4]: prefrontal cortex, individual mice; for FLX uM**: fluoxetine MW 309g/mol.
For series [5], the system named is mice. In words: Ocular dominance plasticity (monocular deprivation, intrinsic signal imaging). It counts as in vivo, mouse. The settings on record: adult mice, 10 mg/kg i.p. every second day for 8 days. The protocol:
The “transparent skull” preparation was executed as described in literature ([Steinzeig et al., 2017]). Briefly, adult female mice (20-22 weeks old) were anesthetized via i.p. injection with a mixture containing: 0.05 mg/kg fentanyl (Hameln, Germany); 5 mg/kg midazolam (Hameln, Germany); 0.5 mg/kg medetomidine (Orion Pharma, Finland); diluted in saline (B Braun, Germany). The animals’ eyes were covered with protective-gel (Alcon, UK). The animal’s head was shaved and disinfected with ethanol and Betadine. The mouse head was then fixed on the stereotaxic frame and the temperature was maintained at 37°C. A mixture of lidocaine and adrenaline (Orion Pharma, Finland) was applied locally on the head and the skin was cut with spring scissors. The incision area was restricted 2 mm above the bregma and caudal edge of intraparietal bone. The scalp was removed and a focused air stream and a cotton swab were used to clean and stop bleeding. The periosteum was gently scratched away from the skull with an eye scalpel and the temporal muscles were pushed aside, in order to expose enough space around the area of interest to attach the metal holder. When the skull was smooth, white and dry, fat was removed from the skull rapidly by passing on it a cotton swab soaked in acetone and the air current was used to avoid its penetration into the bone. Then, with a metal stick, a thin layer of cyanoacrylate glue (Loctite 401, Henkel, Germany) was applied to the surface of the skull, in order to make the skull transparent. After waiting 10 minutes for the glue to dry, a first layer of acryl was applied on the skull surface with a brush. Acryl was used to prolong the life of the transparency and was prepared by stirring acrylic powder (EUBECOS, Germany) with methacrylate liquid (Densply, Germany) until a nail-polish consistency was reached. After 30 minutes, a second layer of acryl was applied and was left to dry overnight. Finally, the animals were injected s.c. with 5 mg/kg Carprofen (ScanVet, Nord Ireland) for postoperative analgesia and i.p. with a wake-up composed by: 1.2 mg/kg Naloxone (Orpha-Devel Handels und Vertriebs GmbH, Austria), opioid receptor antagonist; 0.5 mg/kg Flumazenil (Hameln, Germany), GABA-A receptor antagonist; 2.5 mg/kg Atipamezole (Vet Medic animal Health Oy, Finland), adrenergic receptor antagonist; diluted in saline (B Braun, Germany). The next day, isoflurane at 4% was used for a couple of minutes to induce the anesthesia and then it was reduced at 2% for the procedure. The acryl layer was polished only on the area of interest, using a hand drill with a polishing bit. […]
Optical imaging. The saturation of haemoglobin in the primary visual cortex of the right hemisphere was measured to assess cortical activity ([Cang et al., 2005]; [Kalatsky and Stryker, 2003]). […]

Take `CNCCC(Oc1ccc(C(F)(F)F)cc1)c1ccccc1` (stereo not drawn) [FLX, fluoxetine]: the figures for the “response in OLM test” value in series [1] (BDNF haploinsufficient mice), in series [1] (animals co-treated with pravastatin) and in series [1] (serotonin transporter knockout (5HTT.ko) mice) were “lack of response”, “lack of response” and “responded to FLX treatment normally”, respectively. In addition, the “long-term memory in OLM test” value in series [1] (TRKB.wt mice, FLX 15 mg/kg/day for 7 days) was “facilitated long-term memory”. Also, the “surface expression of TRKB” value in series [2] was “increased the surface expression of TRKB”. For the same compound, the “binding to chimeric TRKB with the TMD of TRKA” value in series [3] is given as “failed to bind; also recorded: very low”. For the same compound, the FLX in series [4] (genotype het, 15mg/kg in drinking water 21 days, 15 mg/kg) is 1.368 µg/mL and 0.379 µg/mL and 2.739 µg/mL; in series [4] (genotype het, brain density 1.045g/ml), 9.69 µg/mL and 6.28 µg/mL and 21.21 µg/mL; in series [4] (genotype wt, 15mg/kg in drinking water 21 days, 15 mg/kg) it was 1.575 µg/mL and 1.642 µg/mL and 1.024 µg/mL and 1.497 µg/mL and 0.393 µg/mL; in series [4] (genotype wt, brain density 1.045g/ml), 4.03 µg/mL and 11.14 µg/mL and 6.93 µg/mL and 10.29 µg/mL and 9.31 µg/mL. In addition, the “FLX uM**” value in series [4] (genotype het) was 31.36 µM and 20.34 µM and 68.63 µM; in series [4] (genotype wt), 13.04 µM and 36.06 µM and 22.42 µM and 33.30 µM and 30.13 µM. Moreover, the “FLX ug/g wet tissue” value in series [4] (genotype het) is 9.273 ug/g wet tissue and 6.013 ug/g wet tissue and 20.292 ug/g wet tissue; in series [4] (genotype wt), 3.856 ug/g wet tissue and 10.662 ug/g wet tissue and 6.629 ug/g wet tissue and 9.846 ug/g wet tissue and 8.908 ug/g wet tissue.

Take `CNC1(c2ccccc2Cl)CCCCC1=O` (stereo not drawn) [KET, ketamine]: in series [5], the “shift in ocular dominance after 7-day monocular deprivation” value is “significant shift in OD”.
